Data: PubChem BioAssay AID330 (DTP/NCI, 2004)
Several values for one entry are separate records, joined by “and”; a condition that tells them apart may be missing. Equal entries are not always repeated. Toxic doses and inconclusive results are not listed. How the source made its calls: active means survival T/C of 150% or more; inactive means T/C below 125% in these data.

Test system: P388 leukemia ip, CD2F1 mice, survival T/C
Test: NCI In Vivo Anticancer Drug Screen. Data for tumor model P388 Leukemia (intraperitoneal) in CD2F1 (CDF1) mice
Settings: endpoint: median survival time, higher = longer survival
Procedure, shortened: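 Mice carrying the transplanted tumor received test compound or vehicle. Survival was recorded in each group, and the value is the treated-group measurement divided by that of the vehicle-treated control group.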

[1] = dose: 50.0 mg/kg/injection, schedule: Q01DX009 (ip), vehicle: saline with Tween-80
[2] = dose: 100.0 mg/kg/injection, schedule: Q01DX009 (ip), vehicle: saline with Tween-80
[3] = dose: 200.0 mg/kg/injection, schedule: Q01DX009 (ip), vehicle: saline with Tween-80
[4] = dose: 100.0 mg/kg/injection, schedule: Q04DX003 (ip), vehicle: saline with Tween-80
[5] = dose: 200.0 mg/kg/injection, schedule: Q04DX003 (ip), vehicle: saline with Tween-80
[6] = dose: 12.5 mg/kg/injection, schedule: Q01DX009 (ip), vehicle: saline with Tween-80
[7] = dose: 25.0 mg/kg/injection, schedule: Q01DX009 (ip), vehicle: saline with Tween-80
[8] = dose: 100.0 mg/kg/injection, schedule: Q04DX003 (ip), vehicle: saline
[9] = dose: 50.0 mg/kg/injection, schedule: Q01DX005 (ip), vehicle: Klucel (hydroxypropylcellulose) (HPC)
[10] = dose: 100.0 mg/kg/injection, schedule: Q01DX005 (ip), vehicle: Klucel (hydroxypropylcellulose) (HPC)
[11] = dose: 200.0 mg/kg/injection, schedule: Q01DX005 (ip), vehicle: Klucel (hydroxypropylcellulose) (HPC)

Measured: T/C

COc1c2ccoc2cc2oc(COC3OC(CO)C(O)C(O)C3O)cc(=O)c12 (configuration not stated)
inactive: dose: 12.5 mg/kg/injection, schedule: Q01DX005 (ip), vehicle: saline 100 % of control | dose: 25.0 mg/kg/injection, schedule: Q01DX005 (ip), vehicle: saline 108 % of control | dose: 50.0 mg/kg/injection, schedule: Q01DX005 (ip), vehicle: saline 106 % of control and 108 % of control

O=C1OC(C2OC(=O)C(=O)C2C2CCCCCCC2=O)C(C2CCCCCCC2=O)C1=O (configuration not stated)
inactive: dose: 60.0 mg/kg/injection, schedule: Q01DX005 (ip), vehicle: saline with Tween-80 102 % of control | dose: 120.0 mg/kg/injection, schedule: Q01DX005 (ip), vehicle: saline with Tween-80 95 % of control | dose: 240.0 mg/kg/injection, schedule: Q01DX005 (ip), vehicle: saline with Tween-80 100 % of control

CCCCOc1ccc(OCc2ccc(C)cc2)cc1
inactive: [1] 114 % of control | [2] 114 % of control | [3] 91 % of control

COc1cc(O)ccc1C(=S)SC
inactive: [4] 106 % of control | [5] 99 % of control

c1ccc(-c2cc3ccccc3[nH]2)cc1
inactive: [1] 90 % of control | [2] 104 % of control | [3] 102 % of control

O=C1C(Cl)=C(N2CCN(C3=C(Cl)C(=O)c4ccccc4C3=O)CC2)C(=O)c2ccccc21
inactive: dose: 1.5 mg/kg/injection, schedule: Q01DX009 (ip), vehicle: saline 100 % of control and 104 % of control | dose: 3.0 mg/kg/injection, schedule: Q01DX009 (ip), vehicle: saline 100 % of control and 107 % of control | dose: 6.0 mg/kg/injection, schedule: Q01DX009 (ip), vehicle: saline 104 % of control and 97 % of control

COC(=O)c1cc(C)c(NC(C)=O)cc1C
inactive: dose: 12.5 mg/kg/injection, schedule: Q01DX009 (ip), vehicle: distilled water + Tween-80 100 % of control | dose: 25.0 mg/kg/injection, schedule: Q01DX009 (ip), vehicle: distilled water + Tween-80 98 % of control | dose: 50.0 mg/kg/injection, schedule: Q01DX009 (ip), vehicle: distilled water + Tween-80 90 % of control | dose: 100.0 mg/kg/injection, schedule: Q01DX009 (ip), vehicle: distilled water + Tween-80 98 % of control | dose: 200.0 mg/kg/injection, schedule: Q01DX009 (ip), vehicle: distilled water + Tween-80 89 % of control

COc1cc2c[n+]3ccc4ccccc4c3c(N)c2cc1OC
inactive: dose: 50.0 mg/kg/injection, schedule: Q04DX003 (ip), vehicle: distilled water + Tween-80 97 % of control | dose: 100.0 mg/kg/injection, schedule: Q04DX003 (ip), vehicle: distilled water + Tween-80 106 % of control

Nc1ccc2[nH]c3cnccc3c2c1
inactive: dose: 12.5 mg/kg/injection, schedule: Q01DX009 (ip), vehicle: other 103 % of control | dose: 25.0 mg/kg/injection, schedule: Q01DX009 (ip), vehicle: other 108 % of control | dose: 50.0 mg/kg/injection, schedule: Q01DX009 (ip), vehicle: other 103 % of control | dose: 100.0 mg/kg/injection, schedule: Q01DX009 (ip), vehicle: other 103 % of control

O=C(CNC(c1ccccc1)(c1ccccc1)c1ccccc1)OC(c1ccccc1)c1ccccc1
inactive: [1] 104 % of control | [2] 118 % of control | [3] 90 % of control

COc1c(Cc2ccccc2O)c(O)cc(O)c1C(=O)CCc1ccccc1
inactive: dose: 0.25 mg/kg/injection, schedule: Q01DX009 (ip), vehicle: Klucel (hydroxypropylcellulose) (HPC) 100 % of control | dose: 0.5 mg/kg/injection, schedule: Q01DX009 (ip), vehicle: Klucel (hydroxypropylcellulose) (HPC) 101 % of control | dose: 1.0 mg/kg/injection, schedule: Q01DX009 (ip), vehicle: Klucel (hydroxypropylcellulose) (HPC) 107 % of control | dose: 2.0 mg/kg/injection, schedule: Q01DX009 (ip), vehicle: Klucel (hydroxypropylcellulose) (HPC) 113 % of control | dose: 4.0 mg/kg/injection, schedule: Q01DX009 (ip), vehicle: Klucel (hydroxypropylcellulose) (HPC) 104 % of control | dose: 8.0 mg/kg/injection, schedule: Q01DX009 (ip), vehicle: Klucel (hydroxypropylcellulose) (HPC) 100 % of control | dose: 16.0 mg/kg/injection, schedule: Q01DX009 (ip), vehicle: Klucel (hydroxypropylcellulose) (HPC) 96 % of control | dose: 32.0 mg/kg/injection, schedule: Q01DX009 (ip), vehicle: Klucel (hydroxypropylcellulose) (HPC) 100 % of control

O=C(O)CCCCCCCCCc1ccccc1
inactive: [6] 100 % of control | [7] 97 % of control | [1] 95 % of control | dose: 50.0 mg/kg/injection, schedule: Q01DX009 (ip), vehicle: saline 97 % of control

CCc1c(CC(=O)O)c2cc(C)ccc2n1Cc1ccc(Cl)cc1
inactive: [6] 95 % of control | [7] 104 % of control | dose: 25.0 mg/kg/injection, schedule: Q04DX003 (ip), vehicle: saline with Tween-80 104 % of control and 95 % of control and 91 % of control | [1] 109 % of control | dose: 50.0 mg/kg/injection, schedule: Q04DX003 (ip), vehicle: saline with Tween-80 108 % of control and 91 % of control | [4] 90 % of control and 108 % of control and 92 % of control | [8] 96 % of control | [5] 90 % of control

BrCC[Se](Br)(Br)c1ccccc1
inactive: dose: 1.56 mg/kg/injection, schedule: Q01DX009 (ip), vehicle: Klucel (hydroxypropylcellulose) (HPC) 101 % of control | dose: 3.12 mg/kg/injection, schedule: Q01DX009 (ip), vehicle: Klucel (hydroxypropylcellulose) (HPC) 101 % of control | dose: 6.25 mg/kg/injection, schedule: Q01DX009 (ip), vehicle: Klucel (hydroxypropylcellulose) (HPC) 99 % of control and 93 % of control

CN1C(Cc2ccccc2)N(S(=O)(=O)C2C=CC=CC=C2)CC1(C)C (configuration not stated)
inactive: [8] 101 % of control | dose: 200.0 mg/kg/injection, schedule: Q04DX003 (ip), vehicle: saline 99 % of control | dose: 400.0 mg/kg/injection, schedule: Q04DX003 (ip), vehicle: saline 93 % of control

O=C1Nc2ccccc2/C1=N/N1C(=O)c2ccccc2C1=O
inactive: [9] 91 % of control | [10] 92 % of control | [11] 97 % of control

CCOC(=O)Nc1nccs1
inactive: [7] 108 % of control | [1] 103 % of control | [2] 102 % of control | [3] 108 % of control

O=C(CC(=NCCN=C(CC(=O)c1ccccc1)c1ccccc1)c1ccccc1)c1ccccc1
inactive: [1] 112 % of control | [2] 100 % of control | [3] 100 % of control

Cc1ccc(-c2nnc3cc(C)n4nnnc4n23)cc1
inactive: dose: 6.25 mg/kg/injection, schedule: Q01DX005 (ip), vehicle: Klucel (hydroxypropylcellulose) (HPC) 101 % of control | dose: 12.5 mg/kg/injection, schedule: Q01DX005 (ip), vehicle: Klucel (hydroxypropylcellulose) (HPC) 108 % of control | dose: 25.0 mg/kg/injection, schedule: Q01DX005 (ip), vehicle: Klucel (hydroxypropylcellulose) (HPC) 108 % of control | [9] 101 % of control | [10] 105 % of control | [11] 107 % of control

Cc1c([N+](=O)[O-])c(=O)oc2c(C)c3occc(=O)c3cc12
inactive: dose: 100.0 mg/kg/injection, schedule: Q01DX001 (ip), vehicle: saline with Tween-80 89 % of control | dose: 200.0 mg/kg/injection, schedule: Q01DX001 (ip), vehicle: saline with Tween-80 90 % of control | dose: 400.0 mg/kg/injection, schedule: Q01DX001 (ip), vehicle: saline with Tween-80 86 % of control

Cc1ccc(NNC2=NC(=S)NC(=O)C2)cc1
inactive: [1] 111 % of control | [2] 95 % of control | [3] 104 % of control

CC(C)c1ccc([C](C)(CC(C)(C)C)[Sn]([CH3])([CH3])[CH3])cc1 (configuration not stated)
inactive: dose: 3.13 mg/kg/injection, schedule: Q04DX003 (ip), vehicle: Klucel (hydroxypropylcellulose) (HPC) 105 % of control | dose: 6.25 mg/kg/injection, schedule: Q04DX003 (ip), vehicle: Klucel (hydroxypropylcellulose) (HPC) 92 % of control | dose: 12.5 mg/kg/injection, schedule: Q04DX003 (ip), vehicle: Klucel (hydroxypropylcellulose) (HPC) 91 % of control
